Results reported in ChEMBL document CHEMBL5390223, “Strategies for the Discovery of Oxazolidinone Antibacterial Agents: Development and Future Perspectives” (J Med Chem, 2023).
Converted amounts (≈) assume the structure as drawn.

Experiments:
[1] = system: Mycobacterium tuberculosis variant bovis; assay: Antimycobacterial activity against Mycobacterium tuberculosis H37Rv assessed as reduction in bacterial growth by MABA assay; assay type: functional
[2] = system: Mycobacterium tuberculosis variant bovis; assay: Antimycobacterial activity against Mycobacterium tuberculosis H37Rv assessed as reduction in bacterial cell growth; assay type: functional

Compound | MIC [1] | MIC [2]
CC(=O)NC[C@H]1CN(c2ccc(N3CCOCC3)c(F)c2)C(=O)O1 [LINEZOLID] | 0.5 µg/mL (≈ 1.48 µM) | 
CC(=O)NC[C@H]1CN(c2ccc(N3CCSCC3)c(F)c2)C(=O)O1 [SUTEZOLID] |  | 0.125 µg/mL (≈ 0.354 µM)
